Reference: patent publication US8993574B2, “Pyrrole antifungal agents” (F2G Ltd, priority 2008, dated 2015)
≈ marks a conversion by molar mass, not a printed value.

Key:
Type in all cases: cell-based
[1] = system: Aspergillus fumigatus AF210; assay: MIC, RPMI medium; conditions: for MIC grade, A. fumigatus 210: MIC banded into grades; for MIC: Aspergillus fumigatus, AF210, MIC banded into grades, read-out: MIC grade, A. fumigatus 210
Outline: (§1)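 Broth microdilution in RPMI with 2% glucose, 0.135 M MOPS pH 7.0; compounds as doubling dilutions, 50-0.05 mg/L, inoculum 1−2×10^4 cfu/mL. Incubated 24-48 h at 35° C; growth by OD 485 nm. MIC is lowest concentration giving >80% growth inhibition versus drug-free control.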

Aspergillus terreus AT4 [2] = assay: MIC, RPMI medium; conditions: for MIC grade, A. terreus: MIC banded into grades; for MIC: Aspergillus terreus, AT4, MIC banded into grades, read-out: MIC grade, A. terreus
Outline: as §1

Aspergillus flavus [3] = assay: MIC, RPMI medium; conditions: MIC banded into grades; for MIC: Aspergillus flavus, read-out: MIC grade, A. flavus
Outline: as §1

[4] = system: Aspergillus fumigatus AF293; assay: MIC, RPMI medium; conditions: for MIC grade, A. fumigatus: MIC banded into grades; for MIC: Aspergillus fumigatus, AF293, MIC banded into grades, read-out: MIC grade, A. fumigatus
Outline: as §1

Aspergillus terreus AT49 [5] = assay: MIC, RPMI medium; conditions: for MIC grade, A. terreus 49: MIC banded into grades; for MIC: Aspergillus terreus, AT49, MIC banded into grades, read-out: MIC grade, A. terreus 49
Outline: as §1

Aspergillus niger [6] = assay: MIC, RPMI medium; conditions: MIC banded into grades; for MIC: Aspergillus niger, read-out: MIC grade, A. niger
Outline: as §1

[7] = system: Aspergillus fumigatus AF210; assay: MIC, YAG medium; conditions: 24 h at 35° C, MIC banded into grades; for MIC: Aspergillus fumigatus, read-out: MIC grade, A. fumigatus 210
Outline: (§2)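 DMSO stocks diluted in water as doubling series; spore suspension in YAG (glucose, NH4Cl, yeast extract) added to give 1−2×10^4 cfu/mL. 35° C, 24 h. Growth by OD485; MIC at >70% inhibition, mg/L.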

Aspergillus terreus AT4 [8] = assay: MIC, YAG medium; conditions: 24 h at 35° C, MIC banded into grades; for MIC: Aspergillus terreus, read-out: MIC grade, A. terreus
Outline: as §2

Aspergillus flavus [9] = assay: MIC, YAG medium; conditions: 24 h at 35° C, MIC banded into grades; for MIC: Aspergillus flavus, 24 h, read-out: MIC grade, A. flavus
Outline: as §2

[10] = system: Aspergillus fumigatus AF293; assay: MIC, YAG medium; conditions: 24 h at 35° C, MIC banded into grades; for MIC: Aspergillus fumigatus, read-out: MIC grade, A. fumigatus
Outline: as §2

Aspergillus terreus AT49 [11] = assay: MIC, YAG medium; conditions: 24 h at 35° C, MIC banded into grades; for MIC: Aspergillus terreus, read-out: MIC grade, A. terreus 49
Outline: as §2

Aspergillus niger [12] = assay: MIC, YAG medium; conditions: 24 h at 35° C, MIC banded into grades; for MIC: Aspergillus niger, read-out: MIC grade, A. niger
Outline: as §2

| SMILES | MIC [1] [µg/mL] | MIC (Aspergillus terreus AT4 [2]) [µg/mL] | MIC (Aspergillus flavus [3]) [µg/mL] | MIC [4] [µg/mL] | MIC (Aspergillus terreus AT49 [5]) [µg/mL] | MIC (Aspergillus niger [6]) [µg/mL] | MIC [7] [µg/mL] | MIC (Aspergillus terreus AT4 [8]) [µg/mL] | MIC (Aspergillus flavus [9]) [µg/mL] | MIC [10] [µg/mL] | MIC (Aspergillus terreus AT49 [11]) [µg/mL] | MIC (Aspergillus niger [12]) [µg/mL] | further results |
| --- | --- | --- | --- | --- | --- | --- | --- | --- | --- | --- | --- | --- | --- |
| Cc1cc(C)nc(N2CCN(c3ccc(NC(=O)C(=O)c4c(-c5ccccc5)cc(C)n4CC(=O)OC(C)C)cc3)CC2)c1 [Example 77, (2-{4-[4-(4,6-Dimethyl-pyridin-2-yl)-piperazin-1-yl]-phenylaminooxalyl}-5-methyl-3-phenyl-pyrrol-1-yl)-acetic acid isopropyl ester] | – | – | – | – | – | – | – | – | – | – | – | – | MIC grade, A. fumigatus 210 [1]: 2 (A grade of 2 represents an MIC of from 1 to 10 mg/L); MIC grade, A. terreus (Aspergillus terreus AT4 [2]): 1 (a grade of 1 represents an MIC of greater than 10 mg/L); MIC grade, A. flavus (Aspergillus flavus [3]): 1 (a grade of 1 represents an MIC of greater than 10 mg/L); MIC grade, A. fumigatus [4]: 2 (A grade of 2 represents an MIC of from 1 to 10 mg/L); MIC grade, A. terreus 49 (Aspergillus terreus AT49 [5]): 1 (a grade of 1 represents an MIC of greater than 10 mg/L); MIC grade, A. niger (Aspergillus niger [6]): 1 (a grade of 1 represents an MIC of greater than 10 mg/L); MIC grade, A. fumigatus 210 [7]: 3 (A grade of 3 represents an MIC of less than 1 mg/L); MIC grade, A. terreus (Aspergillus terreus AT4 [8]): 2 (A grade of 2 represents an MIC of from 1 to 10 mg/L); MIC grade, A. flavus (Aspergillus flavus [9]): 1 (a grade of 1 represents an MIC of greater than 10 mg/L); MIC grade, A. fumigatus [10]: 3 (A grade of 3 represents an MIC of less than 1 mg/L); MIC grade, A. terreus 49 (Aspergillus terreus AT49 [11]): 2 (A grade of 2 represents an MIC of from 1 to 10 mg/L); MIC grade, A. niger (Aspergillus niger [12]): 2 (A grade of 2 represents an MIC of from 1 to 10 mg/L) |
| CCc1cc(-c2ccccc2)c(C(=O)C(=O)Nc2ccc(N3CCN(c4cc(C)cc(C)n4)CC3)cc2)n1COC [Example 125, N-{4-[4-(4,6-Dimethyl-pyridin-2-yl)-piperazin-1-yl]-phenyl}-2-(5-ethyl-1-methoxymethyl-3-phenyl-1H-pyrrol-2-yl)-2-oxo-acetamide] | 1 to 10 (≈ 1.81 to 18.1 µM) | 1 to 10 (≈ 1.81 to 18.1 µM) | 1 to 10 (≈ 1.81 to 18.1 µM) | 1 to 10 (≈ 1.81 to 18.1 µM) | 1 to 10 (≈ 1.81 to 18.1 µM) | 1 to 10 (≈ 1.81 to 18.1 µM) | < 1 | < 1 | < 1 | < 1 | < 1 | < 1 | – |
| Cc1cc(-c2ccccc2)c(C(=O)C(=O)Nc2ccc(N3CCN(CC(C)C)CC3)cc2F)n1C [Example 105, 2-(1,5-Dimethyl-3-phenyl-1H-pyrrol-2-yl)-N-[2-fluoro-4-(4-isobutyl-piperazin-1-yl)-phenyl]-2-oxo-acetamide] | < 1 | < 1 | < 1 | < 1 | < 1 | < 1 | < 1 | < 1 | < 1 | < 1 | < 1 | < 1 | – |
| COC(=O)Cn1ccc(C2CCC2)c1C(=O)C(=O)Nc1ccc(N2CCN(c3cc(C)cc(C)n3)CC2)cc1 [Example 107, (3-Cyclobutyl-2-{4-[4-(4,6-dimethyl-pyridin-2-yl)-piperazin-1-yl]-phenylaminooxalyl}-pyrrol-1-yl)-acetic acid methyl ester] | – | – | – | – | – | – | – | – | – | – | – | – | MIC grade, A. fumigatus 210 [1]: 2 (A grade of 2 represents an MIC of from 1 to 10 mg/L); MIC grade, A. terreus (Aspergillus terreus AT4 [2]): 1 (a grade of 1 represents an MIC of greater than 10 mg/L); MIC grade, A. flavus (Aspergillus flavus [3]): 1 (a grade of 1 represents an MIC of greater than 10 mg/L); MIC grade, A. fumigatus [4]: 3 (A grade of 3 represents an MIC of less than 1 mg/L); MIC grade, A. terreus 49 (Aspergillus terreus AT49 [5]): 1 (a grade of 1 represents an MIC of greater than 10 mg/L); MIC grade, A. niger (Aspergillus niger [6]): 1 (a grade of 1 represents an MIC of greater than 10 mg/L); MIC grade, A. fumigatus 210 [7]: 3 (A grade of 3 represents an MIC of less than 1 mg/L); MIC grade, A. terreus (Aspergillus terreus AT4 [8]): 1 (a grade of 1 represents an MIC of greater than 10 mg/L); MIC grade, A. flavus (Aspergillus flavus [9]): 1 (a grade of 1 represents an MIC of greater than 10 mg/L); MIC grade, A. fumigatus [10]: 3 (A grade of 3 represents an MIC of less than 1 mg/L); MIC grade, A. terreus 49 (Aspergillus terreus AT49 [11]): 1 (a grade of 1 represents an MIC of greater than 10 mg/L); MIC grade, A. niger (Aspergillus niger [12]): 1 (a grade of 1 represents an MIC of greater than 10 mg/L) |
| CCCCOCn1c(C)cc(-c2ccccc2)c1C(=O)C(=O)Nc1ccc(N2CCN(c3cc(C)cc(C)n3)CC2)cc1 [Example 135, 2-(1-Butoxymethyl-5-methyl-3-phenyl-1H-pyrrol-2-yl)-N-{4-[4-(4,6-dimethyl-pyridin-2-yl)-piperazin-1-yl]-phenyl}-2-oxo-acetamide] | > 10 | > 10 | > 10 | > 10 | > 10 | > 10 | 1 to 10 (≈ 1.72 to 17.2 µM) | 1 to 10 (≈ 1.72 to 17.2 µM) | > 10 | < 1 | > 10 | 1 to 10 (≈ 1.72 to 17.2 µM) | – |
| COCCn1c(C)cc(-c2ccccc2)c1C(=O)C(=O)Nc1cccc2ncccc12 [Example 29, 2-[1-(2-Methoxy-ethyl)-5-methyl-3-phenyl-1H-pyrrol-2-yl]-2-oxo-N-quinolin-5-yl-acetamide] | > 10 | > 10 | > 10 | > 10 | > 10 | > 10 | > 10 | > 10 | > 10 | > 10 | > 10 | > 10 | – |
| COCc1cc(-c2ccccc2)c(C(=O)C(=O)Nc2ccc(N3CCN(c4cc(C)cc(C)n4)CC3)cc2)n1COC [Example 131, 2-(1,5-Bis-methoxymethyl-3-phenyl-1H-pyrrol-2-yl)-N-{4-[4-(4,6-dimethyl-pyridin-2-yl)-piperazine-1-yl]-phenyl}-2-oxo-acetamide] | > 10 | 1 to 10 (≈ 1.76 to 17.6 µM) | > 10 | > 10 | 1 to 10 (≈ 1.76 to 17.6 µM) | 1 to 10 (≈ 1.76 to 17.6 µM) | 1 to 10 (≈ 1.76 to 17.6 µM) | 1 to 10 (≈ 1.76 to 17.6 µM) | 1 to 10 (≈ 1.76 to 17.6 µM) | 1 to 10 (≈ 1.76 to 17.6 µM) | 1 to 10 (≈ 1.76 to 17.6 µM) | 1 to 10 (≈ 1.76 to 17.6 µM) | – |

Further lines, with some results ahead:

| MIC [1] [µg/mL] | MIC (Aspergillus terreus AT4 [2]) [µg/mL] | MIC (Aspergillus flavus [3]) [µg/mL] | MIC [4] [µg/mL] | MIC (Aspergillus terreus AT49 [5]) [µg/mL] | MIC (Aspergillus niger [6]) [µg/mL] | MIC [7] [µg/mL] | MIC (Aspergillus terreus AT4 [8]) [µg/mL] | MIC (Aspergillus flavus [9]) [µg/mL] | MIC [10] [µg/mL] | MIC (Aspergillus terreus AT49 [11]) [µg/mL] | MIC (Aspergillus niger [12]) [µg/mL] | SMILES | further results |
| --- | --- | --- | --- | --- | --- | --- | --- | --- | --- | --- | --- | --- | --- |
| 1 to 10 (≈ 1.81 to 18.1 µM) | 1 to 10 (≈ 1.81 to 18.1 µM) | 1 to 10 (≈ 1.81 to 18.1 µM) | < 1 | 1 to 10 (≈ 1.81 to 18.1 µM) | 1 to 10 (≈ 1.81 to 18.1 µM) | < 1 | < 1 | < 1 | < 1 | < 1 | < 1 | CSCn1c(C)cc(-c2ccccc2)c1C(=O)C(=O)Nc1ccc(N2CCN(c3cc(C)cc(C)n3)CC2)cc1 [Example 137, N-{4-[4-(4,6-Dimethyl-pyridin-2-yl)-piperazin-1-yl]-phenyl}-2-(5-methyl-1-methylsulfanylmethyl-3-phenyl-1H-pyrrol-2-yl)-2-oxo-acetamide] | – |
| > 10 | > 10 | > 10 | > 10 | > 10 | > 10 | < 1 | 1 to 10 (≈ 1.72 to 17.2 µM) | 1 to 10 (≈ 1.72 to 17.2 µM) | 1 to 10 (≈ 1.72 to 17.2 µM) | 1 to 10 (≈ 1.72 to 17.2 µM) | 1 to 10 (≈ 1.72 to 17.2 µM) | CCCOCCn1c(C)cc(-c2ccccc2)c1C(=O)C(=O)Nc1ccc(N2CCN(c3cc(C)cc(C)n3)CC2)cc1 [Example 140, N-{4-[4-(4,6-Dimethyl-pyridin-2-yl)-piperazin-1-yl]-phenyl}-2-[5-methyl-3-phenyl-1-(2-propoxy-ethyl)-1H-pyrrol-2-yl]-2-oxo-acetamide] | – |
| < 1 | < 1 | < 1 | < 1 | < 1 | 1 to 10 (≈ 2.12 to 21.2 µM) | < 1 | < 1 | < 1 | < 1 | < 1 | < 1 | Cc1cc(-c2ccccc2)c(C(=O)C(=O)Nc2ccc(N3CCN(C(=O)C(C)C)CC3)cc2)n1C [Example 145, 2-(1,5-Dimethyl-3-phenyl-1H-pyrrol-2-yl)-N-[4-(4-isobutyryl-piperazin-1-yl)-phenyl]-2-oxo-acetamide] | – |
| < 1 | < 1 | < 1 | < 1 | < 1 | < 1 | < 1 | < 1 | < 1 | < 1 | < 1 | < 1 | Cc1cc(-c2ccccc2)c(C(=O)C(=O)Nc2ccc(N3CCN(C(C)C(C)C)CC3)cc2)n1C (stereo not drawn) [Example 150, 2-(1,5-Dimethyl-3-phenyl-1H-pyrrol-2-yl)-N-{4-[4-(1,2-dimethyl-propyl)-piperazin-1-yl]-phenyl}-2-oxo-acetamide] | – |
